Measured values published in ChEMBL document CHEMBL1131819, “Human chymase inhibitors based on the 1,2,5-thiadiazolidin-3-one 1,1 dioxide scaffold” (Bioorg Med Chem Lett, 1999).
Activity calls are given as the source filed them. The rule behind the calls is not given here.

Key:
[1] = biological target: T1, Cathepsin G (Homo sapiens) (UniProt P08311); assay: Second order rate constant for the inhibition of leukocyte Cathepsin G (Cat G).
T1 sequence (whole entry): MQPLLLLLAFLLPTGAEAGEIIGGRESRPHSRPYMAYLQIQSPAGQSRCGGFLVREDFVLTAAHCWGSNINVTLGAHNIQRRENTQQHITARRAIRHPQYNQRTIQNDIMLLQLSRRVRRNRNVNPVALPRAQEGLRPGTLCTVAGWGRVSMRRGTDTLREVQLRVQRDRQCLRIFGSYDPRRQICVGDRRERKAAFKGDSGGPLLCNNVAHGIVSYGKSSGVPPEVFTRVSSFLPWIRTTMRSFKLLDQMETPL

[2] = biological target: T2, Chymase (Homo sapiens) (UniProt P23946); assay: Second order rate constant for the inhibition of human skin chymase.
T2 sequence (whole entry): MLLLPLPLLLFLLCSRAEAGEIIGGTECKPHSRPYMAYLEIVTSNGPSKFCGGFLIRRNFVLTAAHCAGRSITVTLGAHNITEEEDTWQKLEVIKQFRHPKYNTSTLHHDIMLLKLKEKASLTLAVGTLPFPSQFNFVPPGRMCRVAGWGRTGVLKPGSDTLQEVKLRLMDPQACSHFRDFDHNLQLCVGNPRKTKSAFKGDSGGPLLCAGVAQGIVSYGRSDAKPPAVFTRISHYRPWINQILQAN

K inact/Ki [1] | K inact/Ki [2] | SMILES
11200 M⁻¹ s⁻¹ | 12500 M⁻¹ s⁻¹ | O=C1C(Cc2ccccc2)N(Cc2ccccc2)S(=O)(=O)N1CS(=O)(=O)c1ccccc1 (configuration not stated)
20700 M⁻¹ s⁻¹ | 13500 M⁻¹ s⁻¹ | O=C(O)c1cccc(S(=O)(=O)CN2C(=O)C(Cc3ccccc3)N(Cc3ccccc3)S2(=O)=O)c1 (configuration not stated)
10600 M⁻¹ s⁻¹ | 21800 M⁻¹ s⁻¹ | CC(=O)OCN1C(=O)C(Cc2ccccc2)N(Cc2ccccc2)S1(=O)=O (configuration not stated)
17400 M⁻¹ s⁻¹ | 23400 M⁻¹ s⁻¹ | O=C(O)CCS(=O)(=O)CN1C(=O)C(Cc2ccccc2)N(Cc2ccccc2)S1(=O)=O (configuration not stated)
66700 M⁻¹ s⁻¹ | 186000 M⁻¹ s⁻¹ | O=C(O)c1ccc(S(=O)(=O)CN2C(=O)C(Cc3ccccc3)N(Cc3ccccc3)S2(=O)=O)cc1 (configuration not stated)
12700 M⁻¹ s⁻¹ | 38500 M⁻¹ s⁻¹ | CC(O)C(=O)OCN1C(=O)C(Cc2ccccc2)N(Cc2ccccc2)S1(=O)=O (configuration not stated)
22700 M⁻¹ s⁻¹ | 45700 M⁻¹ s⁻¹ | O=C(O)CC(=O)OCN1C(=O)C(Cc2ccccc2)N(Cc2ccccc2)S1(=O)=O (configuration not stated)
12800 M⁻¹ s⁻¹ | 30500 M⁻¹ s⁻¹ | O=C(CO)OCN1C(=O)C(Cc2ccccc2)N(Cc2ccccc2)S1(=O)=O (configuration not stated)
15700 M⁻¹ s⁻¹ | 14700 M⁻¹ s⁻¹ | Nc1ccc2nc(SCN3C(=O)C(Cc4ccccc4)N(Cc4ccccc4)S3(=O)=O)sc2c1 (configuration not stated)
17100 M⁻¹ s⁻¹ | 5430 M⁻¹ s⁻¹ | O=C1C(Cc2ccccc2)N(Cc2ccccc2)S(=O)(=O)N1CSc1nc2ccccc2o1 (configuration not stated)
490 M⁻¹ s⁻¹ | 5090 M⁻¹ s⁻¹ | O=C1C(Cc2ccccc2)N(Cc2ccccc2)S(=O)(=O)N1CSc1nnc(-c2ccccc2)o1 (configuration not stated)
430 M⁻¹ s⁻¹ | 6250 M⁻¹ s⁻¹ | CN1C(Cc2ccccc2)C(=O)N(CSc2nc3ccccc3o2)S1(=O)=O (configuration not stated)
25200 M⁻¹ s⁻¹ | 10800 M⁻¹ s⁻¹ | O=C(O)CS(=O)(=O)CN1C(=O)C(Cc2ccccc2)N(Cc2ccccc2)S1(=O)=O (configuration not stated)
8500 M⁻¹ s⁻¹ | 4600 M⁻¹ s⁻¹ | CS(=O)(=O)CN1C(=O)C(Cc2ccccc2)N(Cc2ccccc2)S1(=O)=O (configuration not stated)
350 M⁻¹ s⁻¹ | inactive | O=C(O)c1ccccc1S(=O)(=O)CN1C(=O)C(Cc2ccccc2)N(Cc2ccccc2)S1(=O)=O (configuration not stated)
12300 M⁻¹ s⁻¹ | 39900 M⁻¹ s⁻¹ | O=C(OCN1C(=O)C(Cc2ccccc2)N(Cc2ccccc2)S1(=O)=O)C(O)c1ccccc1 (configuration not stated)
